We go through one compound from US6727279B2, “Arylsulphonamides and analogues” (Bayer Aktiengesellschaft, priority 1998, dated 2004).

The assay has as its target T1, rat CB1 receptor (Rattus norvegicus, UniProt P20272).
T1 construct: contains an open reading frame of 1419 base pairs which corresponds to a protein of 473 amino acids; expressed in transfected cells; host or cells: CHOluc9 cells (CHO luciferase reporter line), stably transfected with pRc/CMV-based plasmid CMV-RH
Description: CB1 luciferase reporter gene test. The class given is cell-based. As to conditions: CHOluc9 cells stably transfected with rat CB1, forskolin-stimulated luciferase; read-out: IC50 (nmol/l), activity in the rat CB1 receptor luciferase receptor gene test. The source says:
CB1—Luciferase Reporter Gene Test
1. Cloning of the Rat Cannabinoid Receptor CB1
Total RNA from rat brain (the tissue was taken from freshly killed animals and shock-frozen in liquid nitrogen) was isolated by acidic guanidinium thiocyanate/phenol/chloroform extraction (J. Biol. Chem. 1979, 18, 5294) and converted into cDNA by means of reverse transcriptase and random primers (in each case from Invitrogen). […] This PCR product was subcloned into the TA cloning vector (Invitrogen) and the nucleotide sequence of the insert was determined by the dideoxynucleotide chain termination reaction using T7DNA polymerase (Sequenase, USA/Amersham). The insert has a length of 1477 base pairs and contains an open reading frame of 1419 base pairs which corresponds to a protein of 473 amino acids. The number of base pairs, the position of the open reading frame and the number of amino acids agree with the published sequence. […]

T1 sequence (P20272 whole entry): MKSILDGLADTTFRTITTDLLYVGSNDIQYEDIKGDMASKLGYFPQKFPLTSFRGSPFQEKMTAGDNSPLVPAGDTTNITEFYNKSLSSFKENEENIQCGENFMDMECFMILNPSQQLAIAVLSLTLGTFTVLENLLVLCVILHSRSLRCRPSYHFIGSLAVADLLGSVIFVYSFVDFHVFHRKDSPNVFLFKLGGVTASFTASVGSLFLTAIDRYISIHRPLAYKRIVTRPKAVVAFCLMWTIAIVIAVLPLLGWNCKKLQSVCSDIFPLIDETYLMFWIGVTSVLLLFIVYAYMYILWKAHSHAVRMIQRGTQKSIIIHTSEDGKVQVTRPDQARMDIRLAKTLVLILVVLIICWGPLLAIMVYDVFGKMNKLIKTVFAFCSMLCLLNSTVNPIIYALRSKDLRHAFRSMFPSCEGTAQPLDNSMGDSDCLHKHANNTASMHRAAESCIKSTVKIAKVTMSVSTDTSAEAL

Turning to `O=S(=O)(CCCC(F)(F)F)Oc1cccc(Oc2cccc3cc(CO)oc23)c1` [Example 1, 2-Hydroxymethyl-7-[3-(4,4,4-trifluorobutyl-1-sulphonyloxy)phenyl-1-oxy]-benzofuran], the IC50 was 0.55 nmol/L.
